Where two headings read alike, the source gives them in different places.
Key:
[1] = rat, in vivo; cited from earlier work
human MOR [2] = biological target: T1, human MOR (Homo sapiens, UniProt P35372); experiment: biochemical; assay type: binding; parameters: host or cells: CHO (CHO-hMOR), cell membranes
human DOR = biological target: T2, human DOR (Homo sapiens, UniProt P41143); assay type: binding
T2 construct: host or cells: CHO (CHO-hDOR), cell membranes

dopamine D1 receptor = system: dopamine D1 receptor; parameters: method as in PMID 18830156, PMID 30308941; conditions: cell-based functional assays; cited from earlier work
human MOR [3] = biological target: T1, human MOR; assay type: cell-based; parameters: host or cells: U2OS (PathHunter U2OS-hMOR-βarrestin2); conditions: PathHunter, U2OS-hMOR
[4] = system: acetic acid-induced writhing; experiment: acetic acid-induced writhing test; assay type: in vivo, mice; conditions: for reduction in the number of writhes / times less effective than morphine (0.5 mg/kg) at equianalgesic doses: mice; for reduction in the number of writhes: 30 min after administration; for antiwrithing response after naltrexone pretreatment: naltrexone 1 mg/kg s.c. 10 min before agonist; for times less effective than morphine (0.5 mg/kg) at equianalgesic doses: writhing assay, s.c.
Method: Male CD1 mice (30–35 g, 7–8 weeks old) were obtained from the Center of Biomodels and Experimental Medicine (CBEM) (Innsbruck, Austria). Mice were group-housed in a temperature-controlled room with a 12 h light/dark cycle and with free access to food and water. All animal studies were conducted in accordance with ethical guidelines and animal welfare standards according to Austrian regulations for animal research and were approved by the Committee of Animal Care of the Austrian Federal Ministry of Science and Research. Test compounds or vehicle were administered by s.c. route in a volume of 10 µL/1 g of body weight.
Writhing was induced in mice by intraperitoneal (i.p.) injection of a 0.6% acetic acid aqueous solution[26]. Drugs or control (vehicle) were s.c. administered, and after 25 min (5 min prior to testing), each animal received i.p. acetic acid solution. Each mouse was placed in individual transparent Plexiglas chambers, and the number of writhes was counted during a 10 min observation period. […] For the antagonism study, naltrexone (1 mg/kg) was s.c. administered 10 min before the opioid agonist, and writhing as assessed as described above. Each experimental group included five to six animals.

human KOR = biological target: T3, human KOR (Homo sapiens, UniProt P41145); assay type: binding
T3 construct: host or cells: CHO (CHO-hKOR), cell membranes

human MOR [5] = biological target: T1, human MOR; experiment: biochemical; assay type: biochemical; parameters: host or cells: CHO (CHO-hMOR), cell membranes; conditions: for agonist character at the MOR: CHO-hMOR; for G protein activation %stim: percentage stimulation relative to DAMGO

T1 sequence (P35372 whole entry): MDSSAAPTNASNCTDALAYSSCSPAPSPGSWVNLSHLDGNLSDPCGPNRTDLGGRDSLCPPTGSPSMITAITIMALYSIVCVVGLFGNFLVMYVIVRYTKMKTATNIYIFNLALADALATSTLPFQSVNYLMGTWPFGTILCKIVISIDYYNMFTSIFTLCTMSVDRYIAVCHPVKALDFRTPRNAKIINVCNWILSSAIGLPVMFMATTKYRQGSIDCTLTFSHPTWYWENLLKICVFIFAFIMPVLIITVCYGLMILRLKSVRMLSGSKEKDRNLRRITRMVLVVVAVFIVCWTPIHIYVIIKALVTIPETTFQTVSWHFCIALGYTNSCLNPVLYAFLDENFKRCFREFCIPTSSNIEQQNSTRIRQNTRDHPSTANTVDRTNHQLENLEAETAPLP
T2 sequence (P41143 whole entry): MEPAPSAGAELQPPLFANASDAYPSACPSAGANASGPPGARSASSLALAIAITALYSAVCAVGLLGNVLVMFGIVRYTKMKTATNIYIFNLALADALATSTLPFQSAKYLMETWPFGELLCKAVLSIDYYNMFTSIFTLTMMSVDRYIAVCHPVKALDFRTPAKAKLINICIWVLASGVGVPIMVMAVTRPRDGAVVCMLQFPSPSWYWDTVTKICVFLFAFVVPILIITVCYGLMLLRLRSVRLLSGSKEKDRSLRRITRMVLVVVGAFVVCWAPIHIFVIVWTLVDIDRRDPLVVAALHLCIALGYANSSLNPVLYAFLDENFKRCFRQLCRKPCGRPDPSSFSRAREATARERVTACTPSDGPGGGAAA
T3 sequence (P41145 whole entry): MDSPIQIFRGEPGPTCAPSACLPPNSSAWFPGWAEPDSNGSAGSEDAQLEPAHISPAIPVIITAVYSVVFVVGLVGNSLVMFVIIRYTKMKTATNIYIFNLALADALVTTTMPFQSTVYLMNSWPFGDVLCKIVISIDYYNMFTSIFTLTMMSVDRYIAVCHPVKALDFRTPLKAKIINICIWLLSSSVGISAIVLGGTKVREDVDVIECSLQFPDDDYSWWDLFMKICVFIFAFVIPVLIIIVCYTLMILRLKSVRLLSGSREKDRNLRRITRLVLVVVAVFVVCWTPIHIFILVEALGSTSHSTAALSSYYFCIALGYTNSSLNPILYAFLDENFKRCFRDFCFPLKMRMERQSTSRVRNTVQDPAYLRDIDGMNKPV

| SMILES | alterations in general behavior (locomotor activity, sedation) (mouse, in vivo) | blood–brain barrier crossing [1] | Ki (human MOR [2]) [nM] | specific binding to the human DOR (human DOR) | activity at the dopamine D1 receptor (dopamine D1 receptor) | β-arrestin2 recruitment upon activation of the MOR (human MOR [3]) | reduction in the number of writhes ([4]; 10 mg/kg s.c.) [%] | antiwrithing response after naltrexone pretreatment [4] | times less effective than morphine (0.5 mg/kg) at equianalgesic doses [4] | specific binding to the human KOR (human KOR) | EC50 (human MOR [5]) [nM] | agonist character at the MOR (human MOR [5]; [35S]GTPγS binding) | G protein activation %stim (human MOR [5]; [35S]GTPγS binding) [%] | alterations in general behavior (locomotor activity, sedation) (mice, s.c., tested doses (5 mg/kg corydine, 10 mg/kg corydaline)) | reduction in the number of writhes ([4]; 5 mg/kg s.c.) [%] | agonist potency, times greater than corydaline (2) (human MOR [5]; [35S]GTPγS binding) | agonist potency, times less potent than DAMGO (human MOR [5]; [35S]GTPγS binding) [times] | β-arrestin2 recruitment %stim (human MOR [3]; relative to DAMGO, – denotes no measurable activity) [%] |
| --- | --- | --- | --- | --- | --- | --- | --- | --- | --- | --- | --- | --- | --- | --- | --- | --- | --- | --- |
| COc1cc2c(cc1OC)C1C(C)c3ccc(OC)c(OC)c3CN1CC2 (centres unmarked) [Corydaline (2), corydaline] | no major alterations in locomotor activity and no sedation | can effectively cross the blood–brain barrier | 1230 ± 290 | did not specifically bind | antagonist activity | failed to induce β-arrestin2 recruitment | 59 | antagonized | ~20 times | did not specifically bind | 1500 ± 440 | full agonists | 104 ± 6 | – | – | – | – | – |
| COc1cc2c3c(c1O)-c1c(ccc(OC)c1OC)C[C@@H]3N(C)CC2 [Corydine (1), corydine] | – | – | 2820 ± 610 | did not specifically bind | – | failed to induce β-arrestin2 recruitment | – | antagonized | ca. 10 times | did not specifically bind | 510 ± 110 | full agonists | 102 ± 6 | no major alterations in locomotor activity and no sedation | 51 | about 3 times | 34 | – |
| C[C@@H](NC(=O)[C@@H](N)Cc1ccc(O)cc1)C(=O)NCC(=O)N(C)[C@@H](Cc1ccccc1)C(=O)NCCO [DAMGO, reference compound] | – | – | – | – | – | effectively recruited β-arrestin2 | – | – | – | – | – | – | 100 | – | – | – | – | 100 |
